Laboratory results from article PMC12024397, “Structure–Activity Study of the Antimicrobial Lipopeptide Humimycin A and Screening Against Multidrug-Resistant Staphylococcus aureus” (Antibiotics, 2025).
Values after ≈ are worked out from the molar mass of the structure shown. Counter-ions that a name gives are not always drawn. Non-standard residues stand in square brackets, D forms with d. Residues, ends and D or L forms follow the SMILES beside them. *: point of attachment. Tetradecanoyl(3S-OH) = CCCCCCCCCCC[C@H](O)CC(=O)*

Experiments:
[1] = tested on: S. aureus ATCC 29213; test: microbe, parasite or virus in culture; conditions: Staphylococcus aureus, ATCC29213, read-out: Inhibition zone diameter
Description: Each agar well was loaded with 70 µL of a peptide solution (256 µg/mL).
For the agar diffusion assay, the bacterial strain was cultured overnight at 37 °C in the previously described media. Cultures were then inoculated at 1% (v/v) in a soft agar medium containing 1.5% (w/v) agar. Wells were created in the inoculated agar plates, and 70 µL of the humimycin analog solution (256 µg/mL) was added to each well. Kanamycin sulfate (256 µg/mL) and 5% dimethyl sulfoxide (DMSO) in water were included as positive and negative control, respectively.

[2] = tested on: Staphylococcus and Streptococcus species; conditions: stereochemistry of the β-hydroxyl group; cited from earlier work
Excerpt: Among promising AMLPs of bacterial origin, humimycins show very attractive activities against S. aureus. Humimycins A 1 and B 2 are composed of a heptapeptide bearing an N-terminal β-hydroxy myristoyl lipid chain (Table 1). […] A novel approach was employed to discover humimycins by combining bioinformatics and chemical synthesis. Rather than depending on bacterial cultures to discover and produce ... || β-Hydroxymyristic acid is specifically incorporated into lipopeptides like surfactin by certain enzymes in Bacillus species. […] The presence of a hydroxyl group imparts some amphiphilicity, aiding interaction with bacterial mem ...

[3] = tested on: Staphylococcus aureus ATCC 29213; format: cell-based
Excerpt: (§1) Analogs were serially diluted two-fold from stock solutions.

[4] = tested on: Staphylococcus aureus ATCC 43300; format: cell-based; conditions: ATCC 43300
Excerpt: as §1

[5] = tested on: Bacillus subtilis ATCC 23857; test: MIC, broth microdilution; format: cell-based; conditions: 37 °C, 18–20 h, triplicate
Excerpt: as §1

[6] = tested on: Salmonella enterica ATCC 14028; test: MIC, broth microdilution; format: cell-based; conditions: 37 °C, 18–20 h, triplicate
Excerpt: as §1

[7] = tested on: Pseudomonas aeruginosa ATCC 27853; test: MIC, broth microdilution; format: cell-based; conditions: 37 °C, 18–20 h, triplicate
Excerpt: as §1

[8] = tested on: Escherichia coli ATCC 25922; test: MIC, broth microdilution; format: cell-based; conditions: 37 °C, 18–20 h, triplicate
Excerpt: as §1

Row | MIC [3] [µg/mL] | MIC [4] [µg/mL] | Structure (SMILES) | zone of inhibition at 256 µg/mL [1] [mm] | potency of (S)-isomer relative to (R)-isomer [2] | MIC [5] | MIC [6] | MIC [7] | MIC [8]
1 |  |  | NC[C@H]1O[C@H](O[C@H]2[C@H](O)[C@@H](O[C@H]3O[C@H](CO)[C@@H](O)[C@H](N)[C@H]3O)[C@H](N)C[C@@H]2N)[C@H](O)[C@@H](O)[C@@H]1O [Kanamycin sulfate] | 24 |  |  |  |  | 
2 | 8 (≈ 7.24 µM) | 16 (≈ 14.5 µM) | CCCCCCCCCCC[C@H](O)CC(=O)N[C@@H](Cc1ccc(O)cc1)C(=O)N[C@@H](CO)C(=O)N[C@H](Cc1ccc(O)cc1)C(=O)N[C@@H](Cc1ccccc1)C(=O)N[C@@H](C(=O)N[C@H](C(=O)N[C@H](C(=O)O)C(C)C)C(C)C)[C@H](C)O [compound 1, reference compound] ({Tetradecanoyl(3S-OH)}-YS[dY]F[dT]VV-OH; N-terminus and C-terminus assumed) |  | four-fold more potent | - ^b (No antimicrobial activity was detected up to 256 µg/mL) | - (No antimicrobial activity was detected up to 256 µg/mL) | - (No antimicrobial activity was detected up to 256 µg/mL) | - (No antimicrobial activity was detected up to 256 µg/mL)
